The text below walks through data of PubChem BioAssay (NCI).

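Dose response: 5 concentrations. Exposure: 48 h. Format: 96-well plates. Endpoint: linear interpolation; highest concentration if not reached. GI50 marks 50% less growth. TGI: concentration producing complete growth inhibition.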 Bounds are passed on as bounds.

Some test systems named below: A549 NSCLC; EKVX NSCLC; HCC-2998 colon; HCT-116 colon; HL-60(TB) leukemia; HT29 colon; IGROV1 ovarian; KM12 colon; MCF7 breast; MDA-N; OVCAR-3 ovarian; OVCAR-5 ovarian; OVCAR-8 ovarian; RPMI-8226 leukemia; SF-539 CNS; SK-MEL-2 melanoma; SNB-19 CNS; SR leukemia; UO-31 renal.
Holding throughout (experiment): NCI tumour cell line growth inhibition, 48 h

Regarding `CC[C@H]1C=CCC[C@@]2(C[C@@H]3CC[C@@H]4[C@H](C(=O)OCCCCCCCCCCCCCCCC(=O)N(CCCNC(C)=O)C[C@H](CCNC(C)=O)OC(C)=O)[C@]5(CCC[C@@H](C)O5)NC(=[N+]34)N2)O1`, the TGI was 1.36 µM in the assay on A549 NSCLC; 1.89 µM in the assay on EKVX NSCLC; 0.221 µM with HCC-2998 colon; 1.24 µM in the assay with HCT-116 colon; 1.34 µM with HL-60(TB) leukemia; 0.998 µM with HT29 colon. The TGI is 1.9 µM in the assay with IGROV1 ovarian; 1.75 µM with KM12 colon; 1.37 µM in the assay with MCF7 breast; 1.36 µM in the assay on MDA-N; 2.03 µM in the assay on OVCAR-3 ovarian; 1.8 µM with OVCAR-5 ovarian. The TGI came to 2.48 µM in the assay on OVCAR-8 ovarian; 0.242 µM in the assay with RPMI-8226 leukemia; 1.59 µM with SF-539 CNS; 0.338 µM in the assay with SK-MEL-2 melanoma; 2.22 µM with SNB-19 CNS; 0.416 µM with SR leukemia. Moreover, the TGI in the assay with UO-31 renal was 2.46 µM. Besides, the GI50 with RPMI-8226 leukemia was 0.0406 µM.
On to `CCOP(C)(=O)/C(Cc1ccc(OC)c(OC)c1)=N\O` (stereo not given), for which the TGI with A549 NSCLC, with EKVX NSCLC, with HCC-2998 colon, in the assay on HCT-116 colon, in the assay on HL-60(TB) leukemia and in the assay with HT29 colon was > 100 µM throughout. Moreover, the TGI in the assay with IGROV1 ovarian, with KM12 colon, in the assay on MCF7 breast, with MDA-N, with OVCAR-3 ovarian and in the assay with OVCAR-5 ovarian was > 100 µM in each case. In addition, the TGI with OVCAR-8 ovarian, in the assay with RPMI-8226 leukemia, with SF-539 CNS, in the assay with SK-MEL-2 melanoma, in the assay with SNB-19 CNS and in the assay on SR leukemia was > 100 µM each time. The TGI with UO-31 renal was > 100 µM.
In the case of `CC(=O)OC1[C@@H](OC(C)=O)CN(OCc2ccccc2)C[C@H]1OC(C)=O` (stereo not given in full), the TGI in the assay with A549 NSCLC, with EKVX NSCLC, in the assay on HCC-2998 colon, in the assay on HCT-116 colon, in the assay with HL-60(TB) leukemia and in the assay on HT29 colon was > 100 µM throughout. Further, the TGI in the assay on IGROV1 ovarian, in the assay on KM12 colon, with MCF7 breast, in the assay with MDA-N, in the assay on OVCAR-3 ovarian and in the assay on OVCAR-5 ovarian was > 100 µM each time. In addition, the TGI in the assay on OVCAR-8 ovarian, with RPMI-8226 leukemia, in the assay on SF-539 CNS, with SK-MEL-2 melanoma, in the assay on SNB-19 CNS and in the assay on SR leukemia was > 100 µM in each case. In the assay with UO-31 renal, the TGI was > 100 µM.
As for `CCOC(=O)N1N(c2ccccc2)C(=O)C1(c1ccccc1)c1ccccc1`, the TGI in the assay with A549 NSCLC, in the assay on EKVX NSCLC, with HCC-2998 colon, with HCT-116 colon, with HL-60(TB) leukemia and in the assay on HT29 colon was > 100 µM each time. Also, the TGI with IGROV1 ovarian, in the assay on KM12 colon, with MCF7 breast, in the assay with MDA-N, with OVCAR-3 ovarian and in the assay with OVCAR-5 ovarian was > 100 µM throughout. Moreover, the TGI with OVCAR-8 ovarian was > 100 µM; in the assay on RPMI-8226 leukemia it was 83.5 µM; in the assay on SF-539 CNS it was > 100 µM; with SK-MEL-2 melanoma, 70.5 µM; in the assay with SNB-19 CNS it was > 100 µM; in the assay on SR leukemia it was > 100 µM. In addition, the TGI in the assay with UO-31 renal is > 100 µM.
As for `COc1cc(Nc2nc3ccccc3nc2C(C)C)cc(OC)c1OC`, the TGI in the assay with A549 NSCLC, in the assay with EKVX NSCLC, in the assay with HCC-2998 colon, with HCT-116 colon, with HL-60(TB) leukemia and with HT29 colon was > 100 µM throughout. The TGI in the assay with IGROV1 ovarian, in the assay on KM12 colon, in the assay on MCF7 breast, with MDA-N, with OVCAR-3 ovarian and with OVCAR-5 ovarian was > 100 µM throughout. For the same molecule, the TGI in the assay with OVCAR-8 ovarian, in the assay on RPMI-8226 leukemia, in the assay on SF-539 CNS, in the assay on SK-MEL-2 melanoma, with SNB-19 CNS and in the assay with SR leukemia was > 100 µM throughout. The TGI in the assay with UO-31 renal is > 100 µM.
As to `NC(=O)C1CCCN1C(=O)N(CCCl)N=O` (stereo not given), the TGI in the assay on A549 NSCLC, in the assay with EKVX NSCLC, in the assay on HCC-2998 colon, in the assay on HCT-116 colon, in the assay with HL-60(TB) leukemia and with HT29 colon was > 100 µM in each case. Also, the TGI with IGROV1 ovarian, with KM12 colon, in the assay with MCF7 breast, in the assay with MDA-N, in the assay on OVCAR-3 ovarian and in the assay with OVCAR-5 ovarian was > 100 µM each time. Further, the TGI in the assay with OVCAR-8 ovarian, in the assay with RPMI-8226 leukemia, in the assay with SF-539 CNS, in the assay with SK-MEL-2 melanoma, in the assay on SNB-19 CNS and with SR leukemia was > 100 µM in each case. Moreover, the TGI in the assay with UO-31 renal is > 100 µM.
